Laboratory results: patent publication US8288375B2, “Fungicidal bicyclic pyrazoles” (E.I. du Pont de Nemours and Company, priority 2007, dated 2012)

How the values were obtained:
Type in all cases: in vivo
[1] = system: Erysiphe graminis f. sp. tritici; experiment: Test A: wheat powdery mildew, test suspension sprayed on wheat seedlings, disease rating; settings: 200 ppm test suspension, 100 = 100% disease control, 0 = no control
[2] = system: Puccinia recondite f sp. tritici; experiment: Test B: wheat leaf rust, test suspension sprayed on wheat seedlings, disease rating; settings: 200 ppm test suspension;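 further: 200 ppm unless marked * meaning 40 ppm or ** meaning 10 ppm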
Fusarium graminearum = experiment: whole plant or invertebrate; settings: for Test C disease control rating: 200 ppm test suspension
Septoria nodorum = experiment: Test D: wheat glume blotch, test suspension sprayed on wheat seedlings, disease rating; settings: 200 ppm test suspension
Septoria tritici = experiment: Test E: wheat leaf blotch, test suspension sprayed on wheat seedlings, disease rating; settings: 200 ppm test suspension;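 further: 200 ppm unless marked * meaning 40 ppm or ** meaning 10 ppm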
Phytophthora infestans = experiment: whole plant or invertebrate; settings: for Test J disease control rating: 200 ppm test suspension
Pythium aphanidermatum = experiment: Test L: bluegrass pythium blight, test suspension sprayed on bluegrass seedlings, disease rating; settings: 200 ppm test suspension;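 further: 200 ppm unless marked * meaning 40 ppm or ** meaning 10 ppm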

SMILES	Test A disease control rating [1] [%]	Test B disease control rating [2] [%]	Test C disease control rating (Fusarium graminearum) [%]	Test D disease control rating (Septoria nodorum) [%]	Test E disease control rating (Septoria tritici) [%]	Test J disease control rating (Phytophthora infestans) [%]	Test L disease control rating (Pythium aphanidermatum) [%]	pest or weed control at 200 ppm ([1]; Blumeria graminis, 192 h) [%]	pest or weed control at 200 ppm ([2]; Puccinia, 192 h) [%]	pest or weed control at 200 ppm (Fusarium graminearum; Fusarium graminearum, in Triticum aestivum, 192 h, read-out: Test C disease control rating) [%]	pest or weed control at 200 ppm (Septoria nodorum; Parastagonospora nodorum, 216 h) [%]	pest or weed control at 200 ppm (Septoria tritici; Zymoseptoria tritici, 504 h) [%]	pest or weed control at 200 ppm (Phytophthora infestans; Phytophthora infestans, in Solanum lycopersicum, 120 h, read-out: Test J disease control rating) [%]	pest or weed control at 200 ppm (Pythium aphanidermatum; Pythium aphanidermatum, 120 h) [%]
Fc1ccc(-c2nn3c(c2-c2ccnc(Oc4ccc(-n5cccc5)cc4)n2)CCCC3)cc1 [Compound 106]	0	94	92	69	72	9	0	–	–	–	–	–	–	–
CC(C)Nc1nccc(-c2c(-c3ccc(F)cc3)nn3c2CS(=O)(=O)CC3)n1 [Compound 114, 4-[2-(4-fluorophenyl)-6,7-dihydro-5,5-dioxido-4H-pyrazolo[5,1-c][1,4]thiazin-3-yl]-N-(1-methylethyl)-2-pyrimidinamine]	–	–	–	–	–	–	–	57	100	94	73	86	100	100
CC(C)CNc1nccc(-c2c(-c3ccc(F)cc3)nn3c2CCCC3)n1 [compound 29]	0	95	100	98	85	47	0	–	–	–	–	–	–	–
CC(C)(CO)Nc1nccc(-c2c(-c3ccc(F)cc3)nn3c2CCCC3)n1 [compound 30]	0	91	92	69	93	47	0	–	–	–	–	–	–	–
CCC(CO)Nc1nccc(-c2c(-c3ccc(F)cc3)nn3c2CCCC3)n1 (stereo not drawn) [compound 31]	0	95	94	78	98	80	99	–	–	–	–	–	–	–
Fc1ccc(-c2nn3c(c2-c2ccnc(NCC4CCCO4)n2)CCCC3)cc1 (stereo not drawn) [compound 34]	96	100	98	100	94	91	100	–	–	–	–	–	–	–
C[Si](C)(C)CNc1nccc(-c2c(-c3ccc(F)cc3)nn3c2CCCC3)n1 [compound 35]	0	99	99	99	100	67	0	–	–	–	–	–	–	–
CC(C)Nc1nccc(-c2c(-c3ccccc3F)nn3c2CCCC3)n1 [compound 36]	0	91	99	96	96	90	99	–	–	–	–	–	–	–
OCCCNc1nccc(-c2c(-c3ccc(F)cc3)nn3c2CCCC3)n1 [compound 37]	70	86	96	0	68	95	93	–	–	–	–	–	–	–
CC(CO)Nc1nccc(-c2c(-c3ccccc3F)nn3c2CCCC3)n1 (stereo not drawn) [compound 38]	0	94	96	64	92	95	99	–	–	–	–	–	–	–
Fc1ccc(-c2nn3c(c2-c2ccnc(NCc4cccs4)n2)CCCC3)cc1 [compound 39]	0	67	60	60	88	0	0	–	–	–	–	–	–	–
Fc1ccc(Nc2nccc(-c3c(-c4ccc(F)cc4)nn4c3CCCC4)n2)cc1 [compound 40]	0	85	84	99	98	0	0	–	–	–	–	–	–	–
CCN1CCCC1CNc1nccc(-c2c(-c3ccc(F)cc3)nn3c2CCCC3)n1 (stereo not drawn) [compound 41]	0	79	0	0	50	0	91	–	–	–	–	–	–	–
CC(CO)Nc1nccc(-c2c(-c3ccsc3)nn3c2CCCC3)n1 (stereo not drawn) [compound 42]	0	85	66	0	59	99	100	–	–	–	–	–	–	–
CC(C)Nc1nccc(-c2c(-c3ccsc3)nn3c2CCCC3)n1 [compound 43]	0	92	98	90	96	97	100	–	–	–	–	–	–	–
OC1(CNc2nccc(-c3c(-c4ccc(F)cc4)nn4c3CCCC4)n2)CC1 [compound 44]	91	85	99	89	100	65	0	–	–	–	–	–	–	–
Cc1ccccc1-c1nn2c(c1-c1ccnc(NC(C)C)n1)CCCC2 [compound 45]	41	89	0	60	97	76	85	–	–	–	–	–	–	–
Cc1ccccc1-c1nn2c(c1-c1ccnc(NC(C)CO)n1)CCCC2 (stereo not drawn) [compound 46]	0	74	0	0	50	97	100	–	–	–	–	–	–	–
C[C@H](CO)Nc1nccc(-c2c(-c3ccc(F)cc3)nn3c2CCCC3)n1 [compound 47]	0	91	69	0	94	99	100	–	–	–	–	–	–	–
C[C@@H](CO)Nc1nccc(-c2c(-c3ccc(F)cc3)nn3c2CCCC3)n1 [compound 48]	0	99	99	0	99	99	100	–	–	–	–	–	–	–
Fc1ccc(-c2nn3c(c2-c2ccnc(NC4CCOCC4)n2)CCCC3)cc1 [compound 49]	76	99	100	100	90	100	99	–	–	–	–	–	–	–
